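1) Cells in 96-well plates. 2) Compound, 48 h, 5 concentrations. 3) Linear interpolation between surrounding doses. 4) Unreached endpoint = highest concentration. TGI is the concentration that stops growth completely.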
Legend:
Test in all cases: growth of human tumour cells (NCI), 48 h
SF-539 CNS = system: SF-539 CNS
UACC-62 melanoma = system: UACC-62 melanoma
M14 melanoma = system: M14 melanoma
OVCAR-4 ovarian = system: OVCAR-4 ovarian
HCT-116 colon = system: HCT-116 colon
HT29 colon = system: HT29 colon
RXF 393 renal = system: RXF 393 renal
EKVX NSCLC = system: EKVX NSCLC
OVCAR-8 ovarian = system: OVCAR-8 ovarian
SNB-19 CNS = system: SNB-19 CNS
LOX IMVI melanoma = system: LOX IMVI melanoma
SR leukemia = system: SR leukemia
T-47D breast = system: T-47D breast
U251 CNS = system: U251 CNS
MDA-MB-435 = system: MDA-MB-435
NCI-H23 lung = system: NCI-H23 lung
786-0 renal = system: 786-0 renal
PC-3 prostate = system: PC-3 prostate
UACC-257 melanoma = system: UACC-257 melanoma
HCC-2998 colon = system: HCC-2998 colon
NCI-H226 lung = system: NCI-H226 lung
DU-145 prostate = system: DU-145 prostate
A498 renal = system: A498 renal
SW-620 colon = system: SW-620 colon
IGROV1 ovarian = system: IGROV1 ovarian
NCI/ADR-RES ovarian = system: NCI/ADR-RES ovarian
MALME-3M melanoma = system: MALME-3M melanoma
SK-OV-3 ovarian = system: SK-OV-3 ovarian
OVCAR-3 ovarian = system: OVCAR-3 ovarian
UO-31 renal = system: UO-31 renal
NCI-H522 lung = system: NCI-H522 lung
MDA-MB-231 breast = system: MDA-MB-231 breast
SNB-75 CNS = system: SNB-75 CNS
HL-60(TB) leukemia = system: HL-60(TB) leukemia
SK-MEL-28 melanoma = system: SK-MEL-28 melanoma
RPMI-8226 leukemia = system: RPMI-8226 leukemia
MDA-N = system: MDA-N
HS 578T breast = system: HS 578T breast
SF-295 CNS = system: SF-295 CNS
KM12 colon = system: KM12 colon
CAKI-1 renal = system: CAKI-1 renal
ACHN renal = system: ACHN renal
OVCAR-5 ovarian = system: OVCAR-5 ovarian
MCF7 breast = system: MCF7 breast
SK-MEL-5 melanoma = system: SK-MEL-5 melanoma
A549 NSCLC = system: A549 NSCLC
TK-10 renal = system: TK-10 renal
HOP-92 NSCLC = system: HOP-92 NSCLC
SF-268 CNS = system: SF-268 CNS
SN12C renal = system: SN12C renal
MOLT-4 leukemia = system: MOLT-4 leukemia
BT-549 breast = system: BT-549 breast
COLO 205 colon = system: COLO 205 colon
HOP-62 NSCLC = system: HOP-62 NSCLC
HCT-15 colon = system: HCT-15 colon
K-562 leukemia = system: K-562 leukemia
NCI-H460 lung = system: NCI-H460 lung
SK-MEL-2 melanoma = system: SK-MEL-2 melanoma

Compound: COc1cc(C)c2c(c1C=O)Oc1c(c(C)c(O)c3c1C(O)OC3=O)OC2=O (stereo not drawn)
- TGI (SF-539 CNS): > 100 µM
- TGI (UACC-62 melanoma): 81.7 µM
- TGI (M14 melanoma): > 100 µM
- TGI (OVCAR-4 ovarian): > 100 µM
- TGI (HCT-116 colon): > 100 µM
- TGI (HT29 colon): > 100 µM
- TGI (RXF 393 renal): 96.7 µM
- TGI (EKVX NSCLC): > 100 µM
- TGI (OVCAR-8 ovarian): > 100 µM
- TGI (SNB-19 CNS): 60.4 µM
- TGI (LOX IMVI melanoma): > 100 µM
- TGI (SR leukemia): 60.9 µM
- TGI (T-47D breast): 65.1 µM
- TGI (U251 CNS): > 100 µM
- TGI (MDA-MB-435): > 100 µM
- TGI (NCI-H23 lung): 95 µM
- TGI (786-0 renal): > 100 µM
- TGI (PC-3 prostate): > 100 µM
- TGI (UACC-257 melanoma): > 100 µM
- TGI (HCC-2998 colon): 44.5 µM
- TGI (NCI-H226 lung): > 100 µM
- TGI (DU-145 prostate): > 100 µM
- TGI (A498 renal): > 100 µM
- TGI (SW-620 colon): > 100 µM
- TGI (IGROV1 ovarian): 60.9 µM
- TGI (NCI/ADR-RES ovarian): > 100 µM
- TGI (MALME-3M melanoma): 52.6 µM
- TGI (SK-OV-3 ovarian): > 100 µM
- TGI (OVCAR-3 ovarian): > 100 µM
- TGI (UO-31 renal): > 100 µM
- TGI (NCI-H522 lung): 83.8 µM
- TGI (MDA-MB-231 breast): 68.3 µM
- TGI (SNB-75 CNS): > 100 µM
- TGI (HL-60(TB) leukemia): 48.4 µM
- TGI (SK-MEL-28 melanoma): > 100 µM
- TGI (RPMI-8226 leukemia): 49.6 µM
- TGI (MDA-N): 43.8 µM
- TGI (HS 578T breast): > 100 µM
- TGI (SF-295 CNS): > 100 µM
- TGI (KM12 colon): 52.3 µM
- TGI (CAKI-1 renal): > 100 µM
- TGI (ACHN renal): > 100 µM
- TGI (OVCAR-5 ovarian): > 100 µM
- TGI (MCF7 breast): 74 µM
- TGI (SK-MEL-5 melanoma): 61.5 µM
- TGI (A549 NSCLC): > 100 µM
- TGI (TK-10 renal): > 100 µM
- TGI (HOP-92 NSCLC): > 100 µM
- TGI (SF-268 CNS): 68 µM
- TGI (SN12C renal): > 100 µM
- TGI (MOLT-4 leukemia): 49.5 µM
- TGI (BT-549 breast): > 100 µM
- TGI (COLO 205 colon): > 100 µM
- TGI (HOP-62 NSCLC): > 100 µM
- TGI (HCT-15 colon): 46.4 µM

Compound: CO[C@@H]1C[C@H]2[C@@H]3CC[C@H]([C@H](C)CO)[C@@]3(C)CC[C@@H]2[C@@]2(C)CC[C@H]3C[C@]312
- TGI (SF-539 CNS): > 100 µM
- TGI (M14 melanoma): > 100 µM
- TGI (OVCAR-4 ovarian): > 100 µM
- TGI (HCT-116 colon): > 100 µM
- TGI (HT29 colon): 40.8 µM
- TGI (RXF 393 renal): > 100 µM
- TGI (EKVX NSCLC): > 100 µM
- TGI (OVCAR-8 ovarian): > 100 µM
- TGI (SNB-19 CNS): > 100 µM
- TGI (LOX IMVI melanoma): 46.5 µM
- TGI (SR leukemia): > 100 µM
- TGI (T-47D breast): > 100 µM
- TGI (U251 CNS): 85.4 µM
- TGI (MDA-MB-435): > 100 µM
- TGI (NCI-H23 lung): > 100 µM
- TGI (786-0 renal): > 100 µM
- TGI (PC-3 prostate): 92.6 µM
- TGI (UACC-257 melanoma): 86.5 µM
- TGI (HCC-2998 colon): > 100 µM
- TGI (NCI-H226 lung): > 100 µM
- TGI (DU-145 prostate): > 100 µM
- TGI (A498 renal): > 100 µM
- TGI (SW-620 colon): > 100 µM
- TGI (IGROV1 ovarian): > 100 µM
- TGI (NCI/ADR-RES ovarian): > 100 µM
- TGI (MALME-3M melanoma): > 100 µM
- TGI (OVCAR-3 ovarian): > 100 µM
- TGI (UO-31 renal): > 100 µM
- TGI (NCI-H522 lung): > 100 µM
- TGI (MDA-MB-231 breast): > 100 µM
- TGI (SNB-75 CNS): > 100 µM
- TGI (HL-60(TB) leukemia): 47.2 µM
- TGI (SK-MEL-28 melanoma): > 100 µM
- TGI (RPMI-8226 leukemia): 58 µM
- TGI (MDA-N): > 100 µM
- TGI (HS 578T breast): > 100 µM
- TGI (K-562 leukemia): > 100 µM
- TGI (SF-295 CNS): 85.9 µM
- TGI (KM12 colon): 35.9 µM
- TGI (CAKI-1 renal): > 100 µM
- TGI (ACHN renal): > 100 µM
- TGI (OVCAR-5 ovarian): > 100 µM
- TGI (MCF7 breast): 47.8 µM
- TGI (SK-MEL-5 melanoma): 78.1 µM
- TGI (A549 NSCLC): > 100 µM
- TGI (TK-10 renal): > 100 µM
- TGI (NCI-H460 lung): 74.8 µM
- TGI (HOP-92 NSCLC): 63.6 µM
- TGI (SF-268 CNS): > 100 µM
- TGI (SN12C renal): > 100 µM
- TGI (MOLT-4 leukemia): > 100 µM
- TGI (BT-549 breast): 49.9 µM
- TGI (COLO 205 colon): 35.3 µM
- TGI (HOP-62 NSCLC): > 100 µM
- TGI (HCT-15 colon): > 100 µM

Compound: Oc1ccc(-c2nc3ccc4ccccc4c3c3c2CCCC3)c(O)c1
- TGI (SF-539 CNS): > 73.2 µM
- TGI (UACC-62 melanoma): > 50.6 µM
- TGI (M14 melanoma): 35.9 µM
- TGI (OVCAR-4 ovarian): > 100 µM
- TGI (HCT-116 colon): 22.6 µM
- TGI (HT29 colon): 25.4 µM
- TGI (RXF 393 renal): > 84.3 µM
- TGI (EKVX NSCLC): > 100 µM
- TGI (OVCAR-8 ovarian): > 68.1 µM
- TGI (SNB-19 CNS): 71.2 µM
- TGI (LOX IMVI melanoma): > 100 µM
- TGI (SR leukemia): > 100 µM
- TGI (T-47D breast): > 100 µM
- TGI (U251 CNS): > 40.5 µM
- TGI (MDA-MB-435): > 63.7 µM
- TGI (NCI-H23 lung): > 100 µM
- TGI (786-0 renal): 24 µM
- TGI (PC-3 prostate): > 100 µM
- TGI (SK-MEL-2 melanoma): 37.6 µM
- TGI (UACC-257 melanoma): > 100 µM
- TGI (HCC-2998 colon): > 100 µM
- TGI (NCI-H226 lung): > 100 µM
- TGI (DU-145 prostate): > 100 µM
- TGI (A498 renal): > 100 µM
- TGI (SW-620 colon): > 68 µM
- TGI (IGROV1 ovarian): > 56.5 µM
- TGI (NCI/ADR-RES ovarian): > 100 µM
- TGI (MALME-3M melanoma): > 59.1 µM
- TGI (SK-OV-3 ovarian): > 100 µM
- TGI (OVCAR-3 ovarian): > 100 µM
- TGI (UO-31 renal): > 100 µM
- TGI (NCI-H522 lung): 41.1 µM
- TGI (MDA-MB-231 breast): 37 µM
- TGI (SNB-75 CNS): > 100 µM
- TGI (HL-60(TB) leukemia): > 100 µM
- TGI (SK-MEL-28 melanoma): > 50.6 µM
- TGI (RPMI-8226 leukemia): > 100 µM
- TGI (MDA-N): 39.3 µM
- TGI (HS 578T breast): 88.9 µM
- TGI (K-562 leukemia): > 100 µM
- TGI (SF-295 CNS): > 74.1 µM
- TGI (KM12 colon): > 100 µM
- TGI (CAKI-1 renal): > 100 µM
- TGI (ACHN renal): 85 µM
- TGI (OVCAR-5 ovarian): 49.1 µM
- TGI (MCF7 breast): > 69.8 µM
- TGI (SK-MEL-5 melanoma): 27.1 µM
- TGI (A549 NSCLC): > 100 µM
- TGI (TK-10 renal): 97.9 µM
- TGI (NCI-H460 lung): > 100 µM
- TGI (HOP-92 NSCLC): > 100 µM
- TGI (SF-268 CNS): > 72 µM
- TGI (SN12C renal): 32.8 µM
- TGI (MOLT-4 leukemia): > 100 µM
- TGI (BT-549 breast): > 100 µM
- TGI (COLO 205 colon): 23.9 µM
- TGI (HOP-62 NSCLC): > 100 µM
- TGI (HCT-15 colon): > 100 µM

Reference: PubChem BioAssay (NCI)
